According to patent US20100010078A1, “METHODS OF TREATING ANDROGEN DEPENDENT PROSTATE CANCER BY ADMINISTERING AN ACTIVE PHARMACEUTICAL INGREDIENT BEING FISETIN, 3,3',4',7-TETRAHYDROXYFLAVONE OR A DERIVATIVE THEREOF, IN AN ORAL, TRANSDERMAL OR TOPICAL DOSAGE FORM” (priority 2008, published 2010):

Tests used:
Assay type in all cases: cell-based, human
[1] = test system: cyclin D1, cyclin D2 and cyclin E; test: Western blot, cyclins in LNCaP cells; conditions: fisetin 10-60 μM, 48 h
Method: (§1) Protein extraction and western blotting. Following the treatment of LNCaP cells with fisetin (10-60 μM; 48 h), the media was aspirated, the cells were washed with cold PBS (pH 7.4), and ice-cold lysis buffer (50 mM Tris-HCl, 150 mM NaCl, 1 mM EGTA, 1 mM EDTA, 20 mM NaF, 100 mM Na3VO4, 0.5% NP-40, 1% Triton X-100, 1 mM PMSF (pH 7.4)) with freshly added protease inhibitor cocktail (Protease Inhibitor Cocktail Set III, Calbiochem, La Jolla, Calif.) over ice for 30 min. The cells were scraped and the lysate was collected in a microfuge tube and passed through a needle to break up the cell aggregates. […]
(§2) For western blotting, 30-50 μg protein was resolved over 8-12% polyacrylamide gels and transferred to a nitrocellulose membrane. The blot was blocked in blocking buffer (5% nonfat dry milk/1% Tween 20; in 20 mM TBS, pH 7.6) for 1 hr at room temperature, incubated with appropriate monoclonal or polyclonal primary antibody in blocking buffer for 1.5 h to overnight at 4° C., followed by incubation with anti-mouse or anti-rabbit secondary antibody horseradish peroxidase conjugate obtained from Amersham Life Science Inc. and detected by chemiluminescence and autoradiography using XAR-5 film obtained from Eastman Kodak Co. (Rochester, N.Y., USA). […]

Bak, Bcl-xL, Bad and Bid = test: Western blot, Bak, Bad, Bid and Bcl-xL in LNCaP cells; conditions: fisetin 10-60 μM, 48 h
Method: as §1, §2

LNCaP cells [2] = test: Apoptosis assessment by annexin-V staining; conditions: fisetin 10-60 μM, 48 h
Method: Apoptosis assessment by annexin-V staining. The Annexin-V-Fluos staining kit was used for the detection of apoptotic cells according to vendor's protocol. This kit uses a staining protocol in which the apoptotic cells are stained with annexin-V (green fluorescence). The LNCaP cells were grown to 70% confluency and treated with fisetin (10-60 μM) for 48 h. The fluorescence was measured by a Zeiss 410 confocal microscope (Thornwood, N.Y.). Confocal images of green annexin-FITC fluorescence were collected using 488 nm excitation light from an argon/krypton laser, a 560 nm dichroic mirror and a 514-540 nm bandpass barrier filter.

PrEC cells = test: MTT cell viability assay, normal prostate epithelial (PrEC) cells; conditions: fisetin 10-60 μM
Method: obtained from ATCC (Manassas, Va.). LNCaP cells were cultured in Dulbecco's Modified Eagle's medium supplemented with 5% heat-inactivated fetal bovine serum and 1% penicillin/streptomycin (P-S). CWR22Ru1 and PC-3 cells were grown in RPMI 1640 (Invitrogen) supplemented with 10% fetal bovine serum and 1% P-S. Human prostate epithelial cells (PrEC) were obtained from Cambrex Bioscience (Walkersville, Md.) and grown in prostate epithelial basal cell medium (Cambrex Bioscience) according to the manufacturer's instructions. The cells were maintained under standard cell culture conditions at 37° C. and 5% CO2 in a humid environment. Fisetin dissolved in dimethyl sulfoxide (final concentration 0.1% v/v) was used for the treatment of cells. The cells (60-70% confluent) were treated with fisetin (10-60 μM) for 24 and 48 h in complete growth medium.
Cell viability. The effect of fisetin on the viability of cells was determined by 3-[4,5-dimethylthiazol-2-yl]-2,5-diphenyl tetrazoliumbromide assay. […] The absorbance was recorded on a microplate reader at the wavelength of 540 nm. The effect of fisetin on growth inhibition was assessed as percent cell viability where DMSO-treated cells were taken as 100% viable. […]

LNCaP cells [3] = test: Apoptosis by Cell Death Detection ELISAPLUS; conditions: 48 h
Method: Apoptosis by ELISA. Following treatment of LNCaP cells with fisetin (10-60 μM; 48 h), the extent of apoptosis was determined by Cell Death Detection ELISA^PLUS assay, according to the manufacturer's protocol. The whole cell lysate (40 μg of total protein) was added to the lysis buffer and pipetted on a streptavidin-coated 96-well microtiter plate to which the immunoreagent mix was added and incubated for 2 h at room temperature, with continuous shaking at 500 rpm. The wells were then washed with washing buffer, the substrate solution added, the color developed (10-20 min) was read at 405 nm against the blank, reference wavelength of 490 nm. The enrichment factor (total amount of apoptosis) was calculated by dividing the absorbance of the sample (A405 nm) by the absorbance of the controls without treatment ([…]).

caspase-3, -8 and -9 = test: Western blot, active caspase-3, -8 and -9 in LNCaP cells; conditions: fisetin 10-60 μM, 48 h
Method: as §1, §2

LNCaP cells [4] = test: DNA cell cycle analysis by flow cytometry; conditions: 48 h
Method: DNA Cell Cycle Analysis. The LNCaP cells (50-60% confluent) were treated with fisetin (10-60 μM; 48 h) in complete medium. The cells were trypsinized thereafter, washed twice with cold PBS and centrifuged. The cell pellet was resuspended in 50 μl cold PBS to which cold methanol (450 μL) was added and the cells were incubated for 1 h at 4° C. The cells were centrifuged at 1,100 rpm for 5 minutes, pellet washed twice with cold PBS, suspended in 500 μl PBS and incubated with 5 μl RNase (20 μg/ml final concentration) for 30 min. The cells were chilled over ice for 10 min and incubated with propidium iodide (50 μg/ml final concentration) for 1 h for analysis by flow cytometry. Flow cytometry was performed with a FACScan (Becton Dickinson). A minimum of 10,000 cells per sample were collected and the DNA histograms were further analyzed by using ModiFitLT software (Verily Software House, Topsham, Me.) for cell cycle analysis.

[5] = test system: PI3K (p85), Akt (Ser473 and Thr308); test: Western blot, PI3K (p85) and phosphorylation of Akt in LNCaP cells; conditions: fisetin 10-60 μM, 48 h
Method: as §1, §2

Question: For `O=c1c(O)c(-c2ccc(O)c(O)c2)oc2cc(O)ccc12` [fisetin, 3,3′,4′,7-tetrahydroxyflavone], which “protein expression of cyclins D1, D2 and E” value [1] is on record?
Answer: Its value is “dose-dependent decrease”.

Question: What about the Bcl-xL expression (Bak, Bcl-xL, Bad and Bid) of the same compound?
Answer: The Bcl-xL expression was “significant decrease”.

Question: And the “protein expression of Bak, Bad and Bid” value (Bak, Bcl-xL, Bad and Bid)?
Answer: Its value is “significant increase”.

Question: And the “apoptotic cells by annexin-V staining” value (LNCaP cells [2])?
Answer: The value was “increased”.

Question: What about the “effect on cell viability” value (PrEC cells; 24 h) of the same compound?
Answer: The value was “minimal effect”.

Question: And the “effect on cell viability” value (PrEC cells; 48 h)?
Answer: Its value is “minimal effect”.

Question: And the “apoptosis as compared to control” value (LNCaP cells [3]; fisetin 10 μM)?
Answer: Its value is 40%.

Question: What about the “apoptosis as compared to control” value (LNCaP cells [3]; fisetin 20 μM) of the same compound?
Answer: Its value is 64%.

Question: And the “apoptosis as compared to control” value (LNCaP cells [3]; fisetin 40 μM)?
Answer: Its value is 103%.

Question: And the “apoptosis as compared to control” value (LNCaP cells [3]; fisetin 60 μM)?
Answer: Its value is 106%.

Question: And the “activation of caspase-3, -8 and -9” value (caspase-3, -8 and -9)?
Answer: The value was “dose-dependent increase”.

Question: What about the “G1 phase cell cycle distribution” value (LNCaP cells [4]; fisetin 10 μM) of the same compound?
Answer: The value was 61%.

Question: And the “G1 phase cell cycle distribution” value (LNCaP cells [4]; fisetin 20 μM)?
Answer: The value was 63%.

Question: And the “G1 phase cell cycle distribution” value (LNCaP cells [4]; fisetin 40 μM)?
Answer: The value was 67%.

Question: And the “G1 phase cell cycle distribution” value (LNCaP cells [4]; fisetin 60 μM)?
Answer: Its value is 69%.

Question: And the “expression of regulatory (p85) subunit of PI3K” value [5]?
Answer: Its value is “inhibition”.

Question: What about the “phosphorylation of Akt at Ser473 and Thr308” value [5] of the same compound?
Answer: Its value is “inhibited”.
